Data as given in patent US11161856B2 (H. Lundbeck A/S, priority 2017, dated 2021).

What was measured:
MGLL = target: T1, MGLL (Mus musculus, UniProt O35678); test: In vitro competitive activity-based protein profiling, mouse brain proteome (MGLL); type: biochemical; conditions: for % Inh MGLL Brain (Mouse, μM): concentration not given (μM)
T1 construct: Brain; from tissue; host or cells: mouse brain proteome
T1 sequence (O35678 1-303): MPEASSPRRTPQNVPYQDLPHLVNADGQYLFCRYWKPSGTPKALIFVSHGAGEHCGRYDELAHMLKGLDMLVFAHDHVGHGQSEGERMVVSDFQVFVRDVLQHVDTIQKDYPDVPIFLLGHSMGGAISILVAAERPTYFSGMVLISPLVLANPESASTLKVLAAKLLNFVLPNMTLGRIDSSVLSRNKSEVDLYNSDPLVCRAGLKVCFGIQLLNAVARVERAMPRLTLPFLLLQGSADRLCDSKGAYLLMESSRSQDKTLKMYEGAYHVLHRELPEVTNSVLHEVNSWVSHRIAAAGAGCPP

ABHD6 = target: T2, ABHD6 (Mus musculus, UniProt Q8R2Y0); test: In vitro competitive activity-based protein profiling, mouse brain proteome (ABHD6); type: biochemical; conditions: mouse brain proteome; concentration not given (μM)
T2 construct: Brain; from tissue; host or cells: mouse brain proteome
T2 sequence (Q8R2Y0 1-336): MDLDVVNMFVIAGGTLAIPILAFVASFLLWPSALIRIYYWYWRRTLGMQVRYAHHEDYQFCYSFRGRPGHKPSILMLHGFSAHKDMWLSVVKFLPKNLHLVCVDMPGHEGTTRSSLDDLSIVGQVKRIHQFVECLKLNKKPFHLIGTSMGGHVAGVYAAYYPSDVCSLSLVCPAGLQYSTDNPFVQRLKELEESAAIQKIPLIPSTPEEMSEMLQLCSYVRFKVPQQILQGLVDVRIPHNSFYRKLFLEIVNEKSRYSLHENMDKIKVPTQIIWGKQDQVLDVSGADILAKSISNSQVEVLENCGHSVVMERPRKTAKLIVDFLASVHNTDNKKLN
Description: [The source words this procedure for another target and reports this target under the same test.] In Vitro Competitive Activity-Based Protein Profiling.
Proteomes (human prefrontal cortex or cell membrane fractions) (50 μL, 1.0 mg/mL total protein concentration) were preincubated with varying concentrations of inhibitors at 37° C. After 30 min, FP-Rh or HT-01 (1.0 μL, 50 μM in DMSO) was added and the mixture was incubated for another 30 min at room temperature. Reactions were quenched with SDS loading buffer (15 μL-4×) and run on SDS-PAGE.

SMILES | % Inh MGLL Brain (Mouse, μM) (MGLL) | % Inh ABHD6 Brain (Mouse, μM) (ABHD6) | inhibition at 10 µM (MGLL; at 10 uM, read-out: % Inh MGLL Brain (Mouse))
CS(=O)(=O)N1CCCC12CCN(c1cc(Cl)ccc1CN1CCN(C(=O)OC(C(F)(F)F)C(F)(F)F)CC1)CC2 [Example 205, 1,1,1,3,3,3-Hexafluoropropan-2-yl 4-(4-chloro-2-(l-(methylsulfonyl)-1,8-diazaspiro[4.5]decan-8-yl)benzyl)piperazine-l-carboxylate] | ### (### is ≥75%) | ## (## is between 25 and 75%) | –
CN1CC2CN(c3cc(Cl)ccc3CN3CCN(C(=O)OC(C(F)(F)F)C(F)(F)F)CC3)CC2C1 (stereo not shown) [Example 206, 1,1,1,3,3,3-Hexafluoropropan-2-yl 4-(4-chloro-2-(5-methylhexahydropyrrolo[3,4-c]pyrrol-2(1H)-yl)benzyl)piperazine-1-carboxylate] | ### (### is ≥75%) | # (# is ≤25%) | –
CC(=O)N1CCCC12CCN(c1cc(C(F)(F)F)ccc1CN1CCN(C(=O)OC(C(F)(F)F)C(F)(F)F)CC1)CC2 [Example 208, 1,1,1,3,3,3-Hexafluoropropan-2-yl 4-(2-(1-acetyl-1,8-diazaspiro[4.5]decan-8-yl)-4-(trifluoromethyl)benzyl) piperazine-1-carboxylate] | ### (### is ≥75%) | # (# is ≤25%) | –
CS(=O)(=O)N1CCCC12CCN(c1cc(C(F)(F)F)ccc1CN1CCN(C(=O)OC(C(F)(F)F)C(F)(F)F)CC1)CC2 [Example 209, 1,1,1,3,3,3-Hexafluoropiopan-2-yl 4-(2-(1-(methylsulfonyl)-1.8-diazaspiro[4.5]decan-8-yl)-4-(trifluoromethyl)benzyl) piperazine-1-carboxylate] | ### (### is ≥75%) | # (# is ≤25%) | –
CS(=O)(=O)N1CC2(CCN(c3cc(C(F)(F)F)ccc3CN3CCN(C(=O)OC(C(F)(F)F)C(F)(F)F)CC3)CC2)C1 [Example 211, 1,1,1,3,3,3-Hexafluoropropan-2-yl 4-(2-(2-(methylsulfonyl)-2,7-diazaspiro[3.5]nonan-7-yl)-4-(trifluoiomethyl)benzyl) piperazine-1-carboxylate] | ### (### is ≥75%) | ### (### is ≥75%) | –
CS(=O)(=O)N1CC2(CCN(c3cc(Cl)ccc3CN3CCN(C(=O)OC(C(F)(F)F)C(F)(F)F)CC3)CC2)C1 [Example 212, 1,1,1,3,3,3-Hexafluoropropan-2-yl 4-(4-chloro-2-(2-(methylsulfonyl)-2,7-diazaspiro[3.5]nonan-7-yl)benzyl)piperazine-1-carboxylate] | ### (### is ≥75%) | ## (## is between 25 and 75%) | –
CC(=O)N1CC2(CCN(c3cc(Cl)ccc3CN3CCN(C(=O)OC(C(F)(F)F)C(F)(F)F)CC3)CC2)C1 [Example 213, 1,1,1,3,3,3-Hexafluoropropan-2-yl 4-(2-(2-acetyl-2,7-diazaspiro[3.5]nonan-7-yl)-4-chlorobenzyl)piperazine-1-carboxylate] | ### (### is ≥75%) | ## (## is between 25 and 75%) | –
CN1CCCC12CCN(c1cc(Cl)ccc1CN1CCN(C(=O)OC(C(F)(F)F)C(F)(F)F)CC1)CC2 [Example 214, 1,1,1,3,3,3-Hexafluoropropan-2-yl 4-(4-chloro-2-(1-methyl-1,8-diazaspiro[4.5]decan-8-yl)benzyl)piperazine-1-carboxylate] | ### (### is ≥75%) | # (# is ≤25%) | –
CN1CCCC12CCN(c1cc(C(F)(F)F)ccc1CN1CCN(C(=O)OC(C(F)(F)F)C(F)(F)F)CC1)CC2 [Example 215, 1,1,1,3,3,3-Hexafluoropropan-2-yl 4-(2-(1-methyl-1,8-diazaspiro[4.5]decan-8-yl)-4-(trifluoromethyl)benzyl) piperazine-1-carboxylate] | ### (### is ≥75%) | # (# is ≤25%) | –
CC(=O)N1CC2(CCN(c3cc(C(F)(F)F)ccc3CN3CCN(C(=O)OC(C(F)(F)F)C(F)(F)F)CC3)CC2)C1 [Example 216, 1,1,1,3,3,3-Hexafluoropropan-2-yl 4-(2-(2-acetyl-2,7-diazaspiro[3.5]nonan-7-yl)-4-(trifluoromethyl)benzyl) piperazine-1-carboxylate] | ### (### is ≥75%) | ## (## is between 25 and 75%) | –
CS(=O)(=O)N1CCc2cccc(CN3CCC4(CC3)CCN(C(=O)OC(C(F)(F)F)C(F)(F)F)C4)c2C1 [Example 217, 1,1,1,3,3,3-Hexafluoropropan-2-yl 8-((2-(methylsulfonyl)-1,2,3,4-tetrahydroisoquinolin-8-yl)methyl)-2,8-diazaspiro[4.5]decane-2-carboxylate] | ### (### is ≥75%) | ### (### is ≥75%) | –
CC(=O)N1CC2(CCN(c3ccccc3CN3CCC34CCN(C(=O)OC(C(F)(F)F)C(F)(F)F)CC4)C2)C1 [Example 228, 1,1,1,3,3,3-Hexafluoropropan-2-yl 1-(2-(2-acetyl-2,6-diazaspiro[3,4]octan-6-yl)benzyl)-1,7-diazaspiro[3.5]nonane-7-carboxylate] | ### (### is ≥75%) | # (# is ≤25%) | –
CC(=O)N1CC2(CCN(c3ccccc3CN3CCCCC34CCN(C(=O)OC(C(F)(F)F)C(F)(F)F)CC4)C2)C1 [Example 229, 1,1,1,3,3,3-Hexafluoropropan-2-yl 1-(2-(2-acetyl-2,6-diazaspiro[3,4]octan-6-yl)benzyl)-1,9-diazaspiro[5.5]undecane-9-carboxylate] | ## (## is between 25 and 75%) | # (# is ≤25%) | –
CC(=O)N1CC2(CCN(c3ccccc3CN3CCCC34CN(C(=O)OC(C(F)(F)F)C(F)(F)F)C4)C2)C1 [Example 230, 1,1,1,3,3,3-Hexafluoropropan-2-yl 5-(2-(2-acetyl-2,6-diazaspiro[3,4]octan-6-yl)benzyl)-2,5-diazaspiro[3.4]octane-2-carboxylate] | ## (## is between 25 and 75%) | # (# is ≤25%) | –
CC(=O)N1CC2(CCN(c3ccccc3CN3CCCCC34CN(C(=O)OC(C(F)(F)F)C(F)(F)F)C4)C2)C1 [Example 231, 1,1,1,3,3,3-Hexafluoropropan-2-yl 5-(2-(2-acetyl-2,6-diazaspiro[3.4]octan-6-yl)benzyl)-2,5-diazaspiro[3.5]nonane-2-carboxylate] | ## (## is between 25 and 75%) | ## (## is between 25 and 75%) | –
CS(=O)(=O)N1CCC2(CCN(c3cc(Cl)cc(CN4CCCC45CN(C(=O)OC(C(F)(F)F)C(F)(F)F)C5)c3)CC2)C1 [Example 232] | – | ### (### is ≥75%) | 25 to 75%
CS(=O)(=O)N1CCC2(CCN(c3cc(CN4CCCC45CN(C(=O)OC(C(F)(F)F)C(F)(F)F)C5)cc(C(F)(F)F)c3)CC2)C1 [Example 233, 1,1,1,3,3,3-Hexafluoropropan-2-yl 5-(3-(2-(methylsulfonyl)-2,8-diazaspiro[4.5]decan-8-yl)-5-(trifluoromethyl)benzyl)-2,5-diazaspiro[3.4]octane-2-carboxylate] | ### (### is ≥75%) | ## (## is between 25 and 75%) | –
CC(=O)N1CCC2(CCN(c3cc(Cl)cc(CN4CCCC45CN(C(=O)OC(C(F)(F)F)C(F)(F)F)C5)c3)CC2)C1 [Example 234, 1,1,1,3,3,3-Hexafluoropropan-2-yl 5-(3-(2-acetyl-2,8-diazaspiro[4.5]decan-8-yl)-5-chlorobenzyl)-2,5-diazaspiro[3.4]octane-2-carboxylate] | # (# is ≤25%) | ### (### is ≥75%) | –
CC(=O)N1CCC2(CC1)CCN(c1cc(Cl)cc(CN3CCCC34CN(C(=O)OC(C(F)(F)F)C(F)(F)F)C4)c1)C2 [Example 236, 1,1,1,3,3,3-Hexafluoroprupan-2-yl 5-(3-(8-acetyl-2,8-diazaspiro[4.5]decan-2-yl)-5-chlorobenzyl)-2,5-diazaspiro[3.4]octane-2-carboxylate] | ### (### is ≥75%) | ### (### is ≥75%) | –
CS(=O)(=O)N1CCC2(CCN(c3cc(Cl)cc(CN4CCCC45CN(C(=O)OC(C(F)(F)F)C(F)(F)F)C5)c3)C2)CC1 [Example 237, 1,1,1,3,3,3-Hexafluoropropan-2-yl 5-(3-chloro-5-(8-(methylsulfonyl)-2,8-diazaspiro[4.5]decan-2-yl)benzyl)-2,5-diazaspiro[3.4]octane-2-carboxylate] | ### (### is ≥75%) | ## (## is between 25 and 75%) | –
